What was measured:
[1] = test system: human bone marrow-derived mesenchymal stem cells (hBMSCs); experiment: Cell viability by CCK-8 analysis, hBMSCs; type: cell-based; details: FIG. 1; for influence on cell viability: all the concentrations (50, 100, 200, 400 μM); for cell viability: concentration of 100 μM
Procedure: (§1) In Example 2, influence of a sialyloligosaccharide on cell viability of stem cells was to be confirmed. Particularly, 3′-sialyllactose, 6′-sialyllactose, and a combination thereof were each treated on the subcultured stem cells in a concentration of 0, 50, 100, 200, or 400 μM, and the cell viability per concentration was verified by cell counting kit-8 (CCK-8) analysis. In particular, of hBMSCs, hATMSCs, and hCBMSCs were seeded in a 96-well plate. Then, the stem cells were treated with 3′-sialyllactose (GeneChem), 6′-sialyllactose (GeneChem), and a mixture of 3′-sialyllactose and 6′-sialyllactose in a concentration of 0, 50, 100, 200, or 400 μM and cultured in a DMEM low glucose medium (HyClone) including 1% antibiotics free of fetal bovine serum (T&I). Next, the viabilities of the cultured cells were confirmed by CCK-8 (Dojindo Laboratories, Kumamoto, Japan) analysis.

[2] = test system: human adipose tissue-derived mesenchymal stem cells (hATMSCs); experiment: Cell viability by CCK-8 analysis, hATMSCs; type: cell-based; details: FIG. 2; for influence on cell viability: all the concentrations (50, 100, 200, 400 μM); for cell viability: concentration of 100 μM
Procedure: as §1

[3] = test system: human cord blood-derived mesenchymal stem cells (hCBMSCs); experiment: Cell viability by CCK-8 analysis, hCBMSCs; type: cell-based; details: FIG. 3; for influence on cell viability: all the concentrations (50, 100, 200, 400 μM); for cell viability: concentration of 100 μM
Procedure: as §1

hBMSCs [4] = experiment: Stemness markers OCT4, SOX2, NANOG by qRT-PCR and western blot, hBMSCs; type: cell-based, human; details: 100 μM, compared to stem cells cultured without a sialyllactose, FIG. 4
Text: (§2) In Example 1, human bone marrow-derived mesenchymal stem cells (hBMSCs), human adipose tissue-derived mesenchymal stem cells (hATMSCs), human cord blood-derived mesenchymal stem cells (hCBMSCs), and induced pluripotent stem cells-derived hepatic organoid were used in this experiment. Dulbecco's Modified Eagle's Mediums (DMEM Low Glucose, available from HyClone in Logan, Utah, USA) including 10% fetal bovine serum (available from T&I in Gangwon, Korea), 1% antibiotics (penicillin/streptomycin, available from Gibco in Grand Island, NY, USA) were used as culture mediums of hBMSCs, hATMSCs, and hCBMSCs. After treating 3′-sialyllactose (available from GeneChem), 6′-sialyllactose (available from GeneChem), and a mixture of 3′-sialyllactose and 6′-sialyllactose, each in an amount of 100 μM, the culturing solutions were replaced every 3 days. The negative control was performed in the same manner after adding triple distilled water into the culturing solution. Also, a Hepatocyte Culture Medium (available from Lonza) including an endothelial cell growth medium-2 (available from Lonza), 2.5% FBS, 100 nM dexamethasone (available from Sigma-Aldrich), 20 ng/ml OSM (available from R&D system), and 10 ng/ml HGF (available from PeproTech) was used as the culturing solution of hepatic organoid, and the culturing solution was replaced every 3 days.
(§3) In Example 3, influence of a sialyloligosaccharide on stemness of stem cells was to be confirmed. Particularly, after treating mesenchymal stem cells with each of 3′-sialyllactose, 6′-sialyllactose, and a combination thereof, mRNAs of OCT4, SOX2, and NANOG, which are stem cell markers of the mesenchymal stem cells, and changes in expression at protein levels were each measured by quantitative real-time reverse transcription-polymerase chain reaction (qRT-PCR) and western blot. In particular, total RNAs were isolated from the cells collected after culturing the cells in the same manner as in Example 1, and change in mRNA expression of the isolated total RNAs was confirmed by qRT-PCR using OCT4 primers available from Bioneer (Daejeon, Korea), SOX2 primers available from Bioneer (P200205), and NANOG primers.

hATMSCs = experiment: Stemness markers OCT4, SOX2, NANOG by qRT-PCR and western blot, hATMSCs; type: cell-based, human; details: 100 μM, compared to stem cells cultured without a sialyllactose, FIG. 5
Text: as §2, §3

hCBMSCs = experiment: Stemness markers OCT4, SOX2, NANOG by qRT-PCR and western blot, hCBMSCs; type: cell-based, human; details: 100 μM, compared to stem cells cultured without a sialyllactose, FIG. 6
Text: as §2, §3

hBMSCs [5] = experiment: Cell senescence factors p16 and p53 by qRT-PCR and Western Blot after subculturing; type: cell-based, human; details: hBMSCs subcultured, 100 μM, versus without treatment, FIG. 7
Text: as §2, with “Also, a Hepatocyte Culture Medium (available from Lonza) including an endothelial cell growth medium-2 (available from Lonza), 2.5% FBS, 100 nM dexamethasone (available from Sigma-Aldrich), 20 ng/ml OSM (available from R&D system), and 10 ng/ml HGF (available from PeproTech) was used as the culturing solution of hepatic organoid, and the culturing solution was replaced every 3 days.” left out
In Example 4, influence of a sialyloligosaccharide on senescence of stem cells was to be confirmed. Particularly, after treating the hBMSC stem cells with 3′-sialyllactose, changes in expression at mRNA and protein levels of p16 and p53, which are cell senescence factors after subculturing were each measured by qRT-PCT and Western Blot. […]

hBMSCs [6] = experiment: Senescence-associated beta-galactosidase (SA-β-gal) staining; type: cell-based, human; details: hBMSCs of 10 passages, 100 μM, versus without treatment, FIG. 7C
Procedure: Also, in order to confirm a degree of senescence of the stem cells after being treated with 3′-sialyllactose (GeneChem), senescence-associated beta-galactosidase staining was performed on hBMSCs of 10 passages, treated with 100 μM of 3′-sialyllactose. In particular, after fixing the cells in formalin, the resultant washed with PBS, and 1 mg/mL of a β-gal staining solution X-Gal, 40 mM of a citric acid-sodium phosphate buffer solution, 150 mM of NaCl, 2 mM of MgCl2, 5 mM of potassium ferrocyanide, and 5 mM of potassium ferricyanide (pH 6.0, available from Sigma-Aldrich, St. Louis, USA) were add to the resultant and reacted at 37° C. Then, degrees of senescence activity of the aged cells (blue, positive) and cells not showing activity of senescence (negative) were confirmed using Eclipse TS100 (available from Nikon USA, Melville, N.Y., USA).

hBMSCs [7] = experiment: Proliferation genes CCNA2 and CDK2 expression by qRT-PCR; type: cell-based, human; details: hBMSCs having low proliferation ability, 100 μM, mRNA, FIG. 8
Text: (§4) In Example 1, human bone marrow-derived mesenchymal stem cells (hBMSCs), human adipose tissue-derived mesenchymal stem cells (hATMSCs), human cord blood-derived mesenchymal stem cells (hCBMSCs), and induced pluripotent stem cells-derived hepatic organoid were used in this experiment. Dulbecco's Modified Eagle's Mediums (DMEM Low Glucose, available from HyClone in Logan, Utah, USA) including 10% fetal bovine serum (available from T&I in Gangwon, Korea), 1% antibiotics (penicillin/streptomycin, available from Gibco in Grand Island, NY, USA) were used as culture mediums of hBMSCs, hATMSCs, and hCBMSCs. After treating 3′-sialyllactose (available from GeneChem), 6′-sialyllactose (available from GeneChem), and a mixture of 3′-sialyllactose and 6′-sialyllactose, each in an amount of 100 μM, the culturing solutions were replaced every 3 days. The negative control was performed in the same manner after adding triple distilled water into the culturing solution. Also, a Hepatocyte Culture Medium (available from Lonza) including an endothelial cell growth medium-2 (available from Lonza), 2.5% FBS, 100 nM dexamethasone (available from Sigma-Aldrich), 20 ng/ml OSM (available from R&D system), and 10 ng/ml HGF (available from PeproTech) was used as the culturing solution of hepatic organoid, and the culturing solution was replaced every 3 days. […]

hBMSCs [8] = experiment: Cell viability per subculturing passage by CCK-8; type: cell-based, human; details: hBMSCs subcultured for 4, 7, 10, and 12 passages, 100 μM, FIG. 9
Procedure: In Example 6, influence of a sialyloligosaccharide on viability of stem cells according to cell subculturing passages was to be confirmed. Particularly, hBMSCs subcultured for 4, 7, 10, and 12 passages were treated with 3′-sialyllactose in a concentration of 100 μM, and the cell viability was confirmed by cell counting kit-8 assay (CCK-8) analysis. In particular, the hBMSCs were seeded in a 96-well plate. Then, the stem cells were treated with 3′-sialyllactose (GeneChem) in a concentration of 100 μM and cultured in a DMEM low glucose medium (HyClone) including 1% antibiotics free of fetal bovine serum (T&I). Viabilities of the cultured cells were confirmed by the CCK-8 analysis.

[9] = test system: induced pluripotent stem cells-derived hepatic organoids; experiment: Cell viability of hepatic organoids by CCK analysis; type: cell-based; details: concentrations of 0.1, 1, 10, and 100 μM for 6 days, 7th day, FIG. 10
Text: as §4

[10] = test system: induced pluripotent stem cells-derived hepatic organoids; experiment: Metabolic maturity of hepatic organoids, mRNA expression ratios by qRT-PCR; type: cell-based; details: 6 days; for ratios of ALB/AFP: FIG. 12
Text: as §2
In Example 8, influence of a sialyloligosaccharide on maturity of induced pluripotent stem cells-derived hepatic organoids was to be confirmed. Particularly, after subculturing the hepatic organoids, the organoids were stabilized in a hepatic medium (HM) for a day and treated with 3′-sialyllactose and 6′-sialyllactose in concentrations of 0, 0.1, 1, 10, and 100 μM for 6 days, and then total RNAs were isolated from the hepatic organoids on the 7th day. The changes in expressions at mRNA level of CYP3A4, CYP2A7, ALB, and AFP, which are markers of metabolic maturity, were each measured by qRT-PCR, and the expression ratios were compared to confirm the metabolic maturity.

| SMILES | influence on cell viability [1] | cell viability [1] | influence on cell viability [2] | cell viability [2] | influence on cell viability [3] | cell viability [3] | expression at mRNA and protein levels of NANOG (hBMSCs [4]) | expression at mRNA and protein levels of OCT4 (hBMSCs [4]) | expression at mRNA and protein levels of SOX2 (hBMSCs [4]) | expression at mRNA and protein levels of NANOG (hATMSCs) | expression at mRNA and protein levels of OCT4 (hATMSCs) | expression at mRNA and protein levels of SOX2 (hATMSCs) | expression at mRNA and protein levels of NANOG (hCBMSCs) | expression at mRNA and protein levels of OCT4 (hCBMSCs) | expression at mRNA and protein levels of SOX2 (hCBMSCs) | cell viability of hepatic organoids [9] | also measured |
| --- | --- | --- | --- | --- | --- | --- | --- | --- | --- | --- | --- | --- | --- | --- | --- | --- | --- |
| CC(=O)N[C@H]1[C@H]([C@H](O)[C@H](O)CO)O[C@@](O[C@H]2[C@@H](O)[C@@H](CO)O[C@@H](O[C@H]3[C@H](O)[C@@H](O)C(O)O[C@@H]3CO)[C@@H]2O)(C(=O)O)C[C@@H]1O (some centres unmarked) [3′-sialyllactose] | did not negatively influence the cell viability | increased significantly | did not negatively influence the cell viability | increased significantly | did not negatively influence the cell viability | increased significantly | significantly increased | significantly increased | significantly increased | significantly increased | significantly increased | significantly increased | significantly increased | significantly increased | significantly increased | significantly increased | expression at mRNA and protein levels of p16 (hBMSCs [5]): very low expression; expression at mRNA and protein levels of p53 (hBMSCs [5]): very low expression; SA-β-gal activity (hBMSCs [6]): low SA-β-gal activity; expression of CCNA2 (hBMSCs [7]): significantly increased; expression of CDK2 (hBMSCs [7]): significantly increased; cell viability (hBMSCs [8]): significantly increased; ratios of ALB/AFP ([10]; concentrations of 1, 10, and 100 μM): significantly increased; ratios of CYP3A4/CYP3A7 ([10]; concentrations of 1 and 10 μM, FIG. 11): significantly increased |
| CC(=O)N[C@H]1[C@H]([C@H](O)[C@H](O)CO)O[C@@](OC[C@H]2O[C@@H](O[C@H]3[C@H](O)[C@@H](O)[C@H](O)O[C@@H]3CO)[C@H](O)[C@@H](O)[C@H]2O)(C(=O)O)C[C@@H]1O [6′-sialyllactose] | did not negatively influence the cell viability | increased significantly | did not negatively influence the cell viability | increased significantly | did not negatively influence the cell viability | increased significantly | significantly increased | significantly increased | significantly increased | significantly increased | significantly increased | significantly increased | significantly increased | significantly increased | significantly increased | significantly increased | ratios of ALB/AFP ([10]; concentrations of 0.1 and 100 μM): significantly increased |

From patent publication US20230270788A1, “COMPOSITION FOR AUGMENTING STEMNESS AND USE THEREOF” (GENECHEM INC., priority 2019, published 2023)
